Values quoted from earlier work as cited in patent publication US20110091549A1, “Modulating Drug Release Rate By Controlling The Kinetics Of The pH Transition In Hydrogels” (Confluent Surgical, Inc., priority 2009, published 2011).
Read-outs that look alike come from different tables or passages of the source.

Columns and labels:
[1] = free base form compared with the salt form
[2] = drugs having a pKa of from about 7.4 to about 8.5

| Structure (SMILES) | pKa [2] | also measured |
| --- | --- | --- |
| O=c1[nH]c(=O)n([C@H]2C[C@H](O)[C@@H](CO)O2)cc1Br [Broxuridine] | 7.85 |  |
| CCCCN1CCCCC1C(=O)Nc1c(C)cccc1C (stereo not drawn) [Bupivacaine, bupivacaine] |  | aqueous solubility [1]: lower aqueous solubility; pKa (transition of the salt form into free base form): about 8.1 |
| CN1CCN(C(c2ccccc2)c2ccc(Cl)cc2)CC1 (stereo not drawn) [Chlorcyclizine] | 7.8 |  |
| COc1cccc2c1C(=O)c1c(O)c3c(c(O)c1C2=O)C[C@@](O)(C(=O)CO)C[C@@H]3O[C@H]1C[C@H](N)[C@H](O)[C@H](C)O1 [Doxorubicin] |  | pKa: 8.2 |
| CCCN(CC)C(CC)C(=O)Nc1c(C)cccc1C (stereo not drawn) [Etidocaine] | 7.7 |  |
